The subject of test [1] is IRF3 signaling pathway (IRF-inducible ISG54 promotor) in THP1-Lucia ISG cells. As to the kind of experiment: THP1-Lucia ISG reporter assay: induction of IRF3-dependent luciferase activity. It counts as cell-based. The settings on record: Homo sapiens, PMA-differentiated cells, 18 h after stimulation, read-out: THP1 ISG: fold increase of IRF3-dependent luciferase activity over background; for fold induction at 10 µM: 10 μM compound. The method, then: The compounds were evaluated in the THP1-Lucia™ ISG (interferon stimulated genes) reporter assay to determine if the compounds activate the IRF3 signaling pathway. The THP1-Lucia™ cells (InvivoGen) express the secreted luciferase (Lucia) reporter gene under the control of an IRF-inducible promotor. The reporter cell line was developed from human monocytic leukemia THP-1 cells.
(§1) The promotor was comprised of five IFN-stimulated response elements (ISRE) fused to an ISG54 minimal promotor which is unresponsive to NF-kB or AP-1 pathways. […] The IRF3-deficient THP1-Lucia™ ISG IRF3 −/− reporter cell line was generated by CRISPR technology from the parent THP1-Lucia™ ISG reporter cell line.
(§2) 5 THP1-Lucia™ ISG cells and IRF3-deficient THP1-Lucia™ ISG IRF3 −/− cells were differentiated with PMA (100 ng/ml) and stimulated with compounds at the indicated concentrations (5 to 20 μM), positive control, or not treated (background). Luciferase secretion was quantified using the QUANTI-Luc luciferase assay system (InvivoGen) 18 h after stimulation. Data are shown as fold increase luciferase activity over background in Table 7 and represent the IRF3-dependent ISG54 promotor activity by the THP1-Lucia™ ISG cells in response to compounds. […] The fold increase of compounds (10 μM, *20 μM, **5 μM) induced IRF3 dependent luciferase activity is indicated as follows: “−” indicates less than 2.4 fold increase; “+” indicates a 2.4-4.9 fold increase; “++” indicates a 5-9.9 fold increase; “+++” indicates a 10-19 fold increase; “++++” indicates a 20-39 fold increase; “+++++” indicates greater than or equal to 40 fold increase.
(In a reporter assay the amount or activity of a reporter protein is the signal.)

Test [2] concerns THP1-Lucia ISG IRF3 −/− cells. As to the kind of experiment: IRF3-deficient THP1-Lucia ISG IRF3 −/− reporter assay (counter-screen). It counts as cell-based. The settings on record: Homo sapiens, 18 h after stimulation, read-out: THP1 ISG IRF3 −/−: fold increase of luciferase activity over background; for fold induction at 10 µM: 10 μM compound. The method, then: as §1, §2
Test [3] relates to CXCL10 secretion by CT26 cells. As to the kind of experiment: RIG-I dependent CXCL10 secretion by CT26 colon carcinoma cells (ELISA). The class given is cell-based, murine. The settings on record: 24 h. As to the method:
(§3) The CT26 murine colon carcinoma cell line (ATCC) was used to evaluate the induction of CXCL10 secretion. CXCL10 is an important chemokine in tumor immune biology that recruits tumor-specific T cells to the tumor. To confirm that compound-mediated CXCL10 production was RIG-I specific, RIG-I deficient CT2-RIG-1−/− cells were generated by Kineta using CRISPR technology.
(§4) CT26 cells were seeded at a density of 1×10^4 cells per well on a 96-well tissue culture plate in 100 μL of cell culture and cells were incubated at 37° C. and 5% CO2 for 24 hr. Next, CT26 cells were treated with compounds at the indicated concentrations. CXCL10 was quantified by ELISA from supernatants taken 24 h after compound stimulation by use of the CXCL10 DuoSet ELISA kit (Cat # DY466, R&D, Minneapolis, Minn., USA) according to the manufacturer's instructions.
(§5) CXCL10 secretion by CT26 cells in response to compounds (in an amount of 5 to 20 μM) of the present disclosure is shown in Table 8. The compound-induced CXCL10 production was RIG-I dependent, since none of the compounds mediated CXCL10 secretion in RIG-I deficient CT26 RIG-1−/− cells. The compounds (10 μM, *20 μM, **5 μM) are indicated in the table as follows: “−” indicates less than 100 pg/mL; “+” indicates 100-199 pg/mL; “++” indicates 200-399 pg/mL; “+++” indicates 400-799 pg/mL; “++++” indicates 800 to 1599 pg/mL; “+++++” indicates greater than or equal to 1600 pg/ml.
(ELISA stands for enzyme-linked immunosorbent assay.)

Test [4] relates to RIG-I deficient CT26 RIG-1−/− cells. As to the kind of experiment: CXCL10 secretion in RIG-I deficient CT26 RIG-1−/− cells (ELISA). It counts as cell-based, murine. The settings on record: 24 h. The method, then: as §3, §4, §5

Each structure is given as a SMILES string. Marks after values point to notes of the source that are not given here.

Consider `CS(=O)(=O)Nc1ccc2nc(NC(=O)c3cc4ccccc4cc3OCCCCN3CCOCC3)sc2c1` [Example 27, N-(6-methanesulfonamido-1,3-benzothiazol-2-yl)-3-[4-(morpholin-4-yl)butoxy]naphthalene-2-carboxamide], for which the fold induction at 10 µM in test [1] is 20 to 39; in test [2], under 2.4. For the same compound, in test [3] (10 μM compound), the “CXCL10 secretion by CT26 cells” value is given as “+++ (“+++” indicates 400-799 pg/mL)”. Besides, in test [4] (10 μM compound), the “CXCL10 secretion by CT26 RIG-I −/− cells” value is reported as “− (“−” indicates less than 100 pg/mL)”.

Regarding `CS(=O)(=O)Nc1ccc2nc(NC(=O)c3cc4ccccc4cc3OCCN3CCOCC3)sc2c1` [Example 28, N-(6-methanesulfonamido-1,3-benzothiazol-2-yl)-3-[2-(morpholin-4-yl)ethoxy]naphthalene-2-carboxamide], the fold induction at 10 µM is 2.4 to 4.9 in test [1] and under 2.4 in test [2]. Also, the “CXCL10 secretion by CT26 cells” value in test [3] (10 μM compound) is listed as “+ (“+” indicates 100-199 pg/mL)”. The “CXCL10 secretion by CT26 RIG-I −/− cells” value in test [4] (10 μM compound) is “− (“−” indicates less than 100 pg/mL)”.

Consider `O=C(Nc1nc2ccc(S(=O)(=O)N3CCCC3)cc2s1)c1cc2ccccc2cc1OCCN1CCOCC1` [Example 29, 3-[2-(morpholin-4-yl)ethoxy]-N-[6-(pyrrolidine-1-sulfonyl)-1,3-benzothiazol-2-yl]naphthalene-2-carboxamide], for which the fold induction at 10 µM is at least 40 in test [1] and under 2.4 in test [2]. Besides, the “CXCL10 secretion by CT26 cells” value in test [3] (10 μM compound) is listed as “++++ (“++++” indicates 800 to 1599 pg/mL)”. In addition, the “CXCL10 secretion by CT26 RIG-I −/− cells” value in test [4] (10 μM compound) is “− (“−” indicates less than 100 pg/mL)”.

Turning to `CN(C)S(=O)(=O)c1ccc2nc(NC(=O)c3cc4ccccc4cc3OCCN3CCOCC3)sc2c1` [Example 30, N-[6-(dimethylsulfamoyl)-1,3-benzothiazol-2-yl]-3-[2-(morpholin-4-yl)ethoxy]naphthalene-2-carboxamide], the fold induction at 10 µM in test [1] was 10 to 19; in test [2] it was under 2.4. Also, the “CXCL10 secretion by CT26 cells” value in test [3] (10 μM compound) is “+++ (“+++” indicates 400-799 pg/mL)”. Moreover, the “CXCL10 secretion by CT26 RIG-I −/− cells” value in test [4] (10 μM compound) is recorded as “− (“−” indicates less than 100 pg/mL)”.

Consider `O=C(Nc1nc2ccc(S(=O)(=O)N3CCCC3)cc2s1)c1cc2ccccc2cc1OCCCCN1CCOCC1` [Example 31, 3-[4-(morpholin-4-yl)butoxy]-N-[6-(pyrrolidine-1-sulfonyl)-1,3-benzothiazol-2-yl]naphthalene-2-carboxamide], for which the fold induction at 10 µM was 10 to 19 in test [1] and under 2.4 in test [2]. For the same compound, the “CXCL10 secretion by CT26 cells” value in test [3] (10 μM compound) is “+++++ (“+++++” indicates greater than or equal to 1600 pg/ml)”. The “CXCL10 secretion by CT26 RIG-I −/− cells” value in test [4] (10 μM compound) was “− (“−” indicates less than 100 pg/mL)”.

Consider `NS(=O)(=O)c1ccc2nc(NC(=O)c3cc4ccccc4cc3OCCCCN3CCOCC3)sc2c1` [Example 32, 3-[4-(morpholin-4-yl)butoxy]-N-(6-sulfamoyl-1,3-benzothiazol-2-yl)naphthalene-2-carboxamide], for which the results for the fold induction at 5 µM in test [1] (5 μM compound (**)) and in test [2] (5 μM compound (**)) were 5 to 9.9 and under 2.4, respectively. For the same compound, the “CXCL10 secretion by CT26 cells” value in test [3] (10 μM compound) was “++++ (“++++” indicates 800 to 1599 pg/mL)”. The “CXCL10 secretion by CT26 RIG-I −/− cells” value in test [4] (10 μM compound) is “− (“−” indicates less than 100 pg/mL)”.

`O=C(Nc1nc2cccc(NC(=S)Nc3ccccc3)c2s1)c1cc2ccccc2cc1OCCCCN1CCOCC1` [Example 33, 3-[4-(morpholin-4-yl)butoxy]-N-{7-[(phenylcarbamothioyl)amino]-1,3-benzothiazol-2-yl}naphthalene-2-carboxamide]: the values for the fold induction at 10 µM in test [1] and in test [2] were 2.4 to 4.9 and under 2.4, respectively. For the same compound, the “CXCL10 secretion by CT26 cells” value in test [3] (5 μM compound (**)) is given as “++** (“++” indicates 200-399 pg/mL)”. The “CXCL10 secretion by CT26 RIG-I −/− cells” value in test [4] (5 μM compound (**)) is on record as “−** (“−” indicates less than 100 pg/mL)”.

Turning to `O=C(Nc1nc2ccc(S(=O)(=O)N3CCC3)cc2s1)c1cc2ccccc2cc1OCCN1CCOCC1` [Example 35, N-[6-(azetidine-1-sulfonyl)-1,3-benzothiazol-2-yl]-3-[2-(morpholin-4-yl)ethoxy]naphthalene-2-carboxamide], the fold induction at 10 µM in test [1] is 20 to 39; in test [2] it was under 2.4. For the same compound, the “CXCL10 secretion by CT26 cells” value in test [3] (10 μM compound) is “+ (“+” indicates 100-199 pg/mL)”. In test [4] (10 μM compound), the “CXCL10 secretion by CT26 RIG-I −/− cells” value was “− (“−” indicates less than 100 pg/mL)”.

As for `O=C(Nc1nc2ccc(S(=O)(=O)N3CCC3)cc2s1)c1cc2ccccc2cc1OCCCCN1CCOCC1` [Example 36, N-[6-(azetidine-1-sulfonyl)-1,3-benzothiazol-2-yl]-3-[4-(morpholin-4-yl)butoxy]naphthalene-2-carboxamide], the values for the fold induction at 10 µM in test [1] and in test [2] were 10 to 19 and under 2.4, respectively. In test [3] (10 μM compound), the “CXCL10 secretion by CT26 cells” value is given as “+++ (“+++” indicates 400-799 pg/mL)”. Moreover, in test [4] (10 μM compound), the “CXCL10 secretion by CT26 RIG-I −/− cells” value was “− (“−” indicates less than 100 pg/mL)”.

As to `O=C(Nc1nc2ccc(S(=O)(=O)N3CCCCC3)cc2s1)c1cc2ccccc2cc1OCCN1CCOCC1` [Example 37, 3-[2-(morpholin-4-yl)ethoxy]-N-[6-(piperidine-1-sulfonyl)-1,3-benzothiazol-2-yl]naphthalene-2-carboxamide], the fold induction at 10 µM in test [1] is 10 to 19; in test [2] it was under 2.4. Further, the “CXCL10 secretion by CT26 cells” value in test [3] (10 μM compound) was “+++ (“+++” indicates 400-799 pg/mL)”. The “CXCL10 secretion by CT26 RIG-I −/− cells” value in test [4] (10 μM compound) is reported as “− (“−” indicates less than 100 pg/mL)”.

`O=C(Nc1nc2ccc(S(=O)(=O)N3CCCCC3)cc2s1)c1cc2ccccc2cc1OCCCCN1CCOCC1` [Example 38, 3-[4-(morpholin-4-yl)butoxy]-N-[6-(piperidine-1-sulfonyl)-1,3-benzothiazol-2-yl]naphthalene-2-carboxamide]: the fold induction at 10 µM in test [1] is 10 to 19; in test [2], under 2.4. Moreover, the “CXCL10 secretion by CT26 cells” value in test [3] (10 μM compound) was “+++ (“+++” indicates 400-799 pg/mL)”. The “CXCL10 secretion by CT26 RIG-I −/− cells” value in test [4] (10 μM compound) is “− (“−” indicates less than 100 pg/mL)”.

In the case of `O=C(Nc1nc2ccc(S(=O)(=O)N3CCCC3)cc2s1)c1cc2ccsc2cc1OCCN1CCOCC1` [Example 39, 6-[2-(morpholin-4-yl)ethoxy]-N-[6-(pyrrolidine-1-sulfonyl)-1,3-benzothiazol-2-yl]-1-benzothiophene-5-carboxamide], the fold induction at 10 µM in test [1] was 20 to 39; in test [2], under 2.4. Further, the “CXCL10 secretion by CT26 cells” value in test [3] (10 μM compound) is “++ (“++” indicates 200-399 pg/mL)”. In addition, in test [4] (10 μM compound), the “CXCL10 secretion by CT26 RIG-I −/− cells” value is listed as “− (“−” indicates less than 100 pg/mL)”.

Turning to `O=C(Nc1nc2ccc(S(=O)(=O)N3CCCC3)cc2s1)c1cc2c(cc1OCCN1CCOCC1)OCO2` [Example 40, 6-[2-(morpholin-4-yl)ethoxy]-N-[6-(pyrrolidine-1-sulfonyl)-1,3-benzothiazol-2-yl]-2H-1,3-benzodioxole-5-carboxamide], the fold induction at 20 µM in test [1] (20 μM compound (*)) was 2.4 to 4.9; in test [2] (20 μM compound (*)), under 2.4. Moreover, the “CXCL10 secretion by CT26 cells” value in test [3] (5 μM compound (**)) is reported as “++** (“++” indicates 200-399 pg/mL)”. In addition, the “CXCL10 secretion by CT26 RIG-I −/− cells” value in test [4] (5 μM compound (**)) is recorded as “−** (“−” indicates less than 100 pg/mL)”.

The values above are taken from patent publication US20200071316A1, “ACTIVATORS OF THE RETINOIC ACID INDUCIBLE GENE "RIG-I" PATHWAY AND METHODS OF USE THEREOF” (Kineta Immuno-Oncology LLC, priority 2018, published 2020).
